Among the data in the Kinase Knowledgebase extract (Sharma et al. 2016) are Ki and inhibition values, retold here.

For orientation: Ki means a measure of affinity in units of concentration, obtained from inhibition or displacement. As usually defined, the inhibition is the change of the read-out against control, counted positive when it falls.

This test deals with CDK2 (UniProt P24941). Briefly: Enzyme Assay. Particulars: for inhibition: concentration not given here.

`O=C1CCCCn2cc(c3cccnc32)C2=C(C(=O)NC2=O)c2cn(c3ncccc23)CCCC1` came in with a Ki of 1230 nM and an inhibition of 50%. In turn, `O=C1NC(=O)C2=C1c1cn(c3ncccc13)CCCC1=CC=C(CCCn3cc2c2cccnc23)S1` displayed an inhibition of 20%. For the compound `O=C1NC(=O)C2=C1c1cn(c3ncccc13)CCCCC(O)CCCCn1cc2c2cccnc21`, the Ki is 682 nM and the inhibition was found to be 57%.
